Measured values: patent publication US6355799B1, “Substituted benzene compounds, process for their preparation, and herbicidal and defoliant compositions containing them” (ISK Americas Incorporated, priority 1997, dated 2002)

Experiments:
Assay type in all cases: in vivo
[1] = system: redroot pigweed (Amaranthus retroflexus, AMARE); test: Pre-emerge test, greenhouse herbicide activity screening; settings: rated 14 days after application, 0 = no damage, 100 = complete death
Summary of the method: (§1)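 Plants grown in 10 cm pots of sandy loam mix received acetone-dissolved compounds through a moving flat-fan nozzle. Doses ranged from 15 to 1000 g ai/ha. Pre-emerge pots were seeded one day earlier, post-emerge pots 8–21 days earlier. Fourteen days on, each pot was graded 0–100 for damage.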

[2] = system: upland rice (Oryza sp., var. Tebonnet, RICE); test: Pre-emerge test, crop safety; settings: rated 14 days after application, 0 = no damage, 100 = complete death
Summary of the method: (§2)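 Applied at 15–1000 g ai/ha from acetone in 187 l/ha spray volume. Post-emergence applications included 0.25% v/v non-ionic surfactant and reached plants sown 8–21 days before. Pre-emergence applications were incorporated by surface watering. Efficacy or crop damage was rated on a 0–100 scale after 14 days.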

[3] = system: field corn (Zea mays L., var. Dekalb 535, CORN); test: Pre-emerge test, crop safety; settings: rated 14 days after application, 0 = no damage, 100 = complete death
Summary of the method: as §2

[4] = system: sicklepod (Cassia obtusifolia, CASOB); test: Pre-emerge test, greenhouse herbicide activity screening; settings: rated 14 days after application, 0 = no damage, 100 = complete death
Summary of the method: as §2

[5] = system: green foxtail (Setaria viridis, SETVI); test: as above; settings: rated 14 days after application, 0 = no damage, 100 = complete death
Summary of the method: as §2

[6] = system: velvetleaf (Abutilon theophrasti, ABUTH); test: as above; settings: rated 14 days after application, 0 = no damage, 100 = complete death
Summary of the method: as §2

[7] = system: barnyardgrass (Echinochloa crus-galli, ECHCG); test: as above; settings: rated 14 days after application, 0 = no damage, 100 = complete death
Summary of the method: as §2

[8] = system: ivyleaf morningglory (Ipomoea hederacea, IPOHE); test: as above; settings: rated 14 days after application, 0 = no damage, 100 = complete death
Summary of the method: as §2

[9] = system: johnsongrass (Sorghum halepense, SORHA); test: as above; settings: rated 14 days after application, 0 = no damage, 100 = complete death
Summary of the method: as §2

[10] = system: large crabgrass (Digitaria sanguinalis, DIGSA); test: as above; settings: rated 14 days after application, 0 = no damage, 100 = complete death
Summary of the method: as §2

[11] = system: lambsquarters (Chenopodium album, CHEAL); test: as above; settings: rated 14 days after application, 0 = no damage, 100 = complete death
Summary of the method: as §2

[12] = system: redroot pigweed (Amaranthus retroflexus, AMARE); test: Post-emerge test, greenhouse herbicide activity screening; settings: phytotoxicity rating 0-100 (0 no damage, 100 complete death), 14 days after application
Summary of the method: as §1

[13] = system: sicklepod (Cassia obtusifolia, CASOB); test: as above; settings: phytotoxicity rating 0-100 (0 no damage, 100 complete death), 14 days after application
Summary of the method: as §1

[14] = system: green foxtail (Setaria viridis, SETVI); test: as above; settings: phytotoxicity rating 0-100 (0 no damage, 100 complete death), 14 days after application
Summary of the method: as §1

[15] = system: velvetleaf (Abutilon theophrasti, ABUTH); test: as above; settings: phytotoxicity rating 0-100 (0 no damage, 100 complete death), 14 days after application
Summary of the method: as §1

[16] = system: barnyardgrass (Echinochloa crus-galli, ECHCG); test: as above; settings: phytotoxicity rating 0-100 (0 no damage, 100 complete death), 14 days after application
Summary of the method: as §1

[17] = system: ivyleaf morningglory (Ipomoea hederacea, IPOHE); test: as above; settings: phytotoxicity rating 0-100 (0 no damage, 100 complete death), 14 days after application
Summary of the method: as §1

[18] = system: johnsongrass (Sorghum halepense, SORHA); test: as above; settings: phytotoxicity rating 0-100 (0 no damage, 100 complete death), 14 days after application
Summary of the method: as §1

[19] = system: large crabgrass (Digitaria sanguinalis, DIGSA); test: as above; settings: phytotoxicity rating 0-100 (0 no damage, 100 complete death), 14 days after application
Summary of the method: as §1

[20] = system: lambsquarters (Chenopodium album, CHEAL); test: as above; settings: phytotoxicity rating 0-100 (0 no damage, 100 complete death), 14 days after application
Summary of the method: as §1

[21] = system: upland rice (Oryza sp., var. Tebonnet, RICE); test: Post-emerge test, crop safety; settings: phytotoxicity rating 0-100 (0 no damage, 100 complete death), 14 days after application
Summary of the method: as §2

[22] = system: field corn (Zea mays L., var. Dekalb 535, CORN); test: Post-emerge test, crop safety; settings: phytotoxicity rating 0-100 (0 no damage, 100 complete death), 14 days after application
Summary of the method: as §2

COc1c(Cl)cc(F)c(-n2c(=O)cc(C(F)(F)F)n(C)c2=O)c1NC(=O)c1ccc(C)c(C)c1 [2-32]
Pre-emerge Herbicidal Activity, phytotoxicity rating (0-100), AMARE ([1]; 63 g ai/ha): 100 | Pre-emerge Herbicidal Activity, phytotoxicity rating (0-100), AMARE ([1]; 250 g ai/ha): 100 | Pre-emerge phytotoxicity rating (0-100), crop damage, RICE ([2]; 63 g ai/ha): 80 | Pre-emerge phytotoxicity rating (0-100), crop damage, RICE ([2]; 250 g ai/ha): 99 | Pre-emerge phytotoxicity rating (0-100), crop damage, CORN ([3]; 63 g ai/ha): 40 | Pre-emerge phytotoxicity rating (0-100), crop damage, CORN ([3]; 250 g ai/ha): 95 | Pre-emerge Herbicidal Activity, phytotoxicity rating (0-100), CASOB ([4]; 63 g ai/ha): 95 | Pre-emerge Herbicidal Activity, phytotoxicity rating (0-100), CASOB ([4]; 250 g ai/ha): 100 | Pre-emerge Herbicidal Activity, phytotoxicity rating (0-100), SETVI ([5]; 63 g ai/ha): 100 | Pre-emerge Herbicidal Activity, phytotoxicity rating (0-100), SETVI ([5]; 250 g ai/ha): 100 | Pre-emerge Herbicidal Activity, phytotoxicity rating (0-100), ABUTH ([6]; 63 g ai/ha): 100 | Pre-emerge Herbicidal Activity, phytotoxicity rating (0-100), ABUTH ([6]; 250 g ai/ha): 100 | Pre-emerge Herbicidal Activity, phytotoxicity rating (0-100), ECHCG ([7]; 63 g ai/ha): 99 | Pre-emerge Herbicidal Activity, phytotoxicity rating (0-100), ECHCG ([7]; 250 g ai/ha): 100 | Pre-emerge Herbicidal Activity, phytotoxicity rating (0-100), IPOHE ([8]; 63 g ai/ha): 100 | Pre-emerge Herbicidal Activity, phytotoxicity rating (0-100), IPOHE ([8]; 250 g ai/ha): 100 | Pre-emerge Herbicidal Activity, phytotoxicity rating (0-100), SORHA ([9]; 63 g ai/ha): 90 | Pre-emerge Herbicidal Activity, phytotoxicity rating (0-100), SORHA ([9]; 250 g ai/ha): 100 | Pre-emerge Herbicidal Activity, phytotoxicity rating (0-100), DIGSA ([10]; 63 g ai/ha): 100 | Pre-emerge Herbicidal Activity, phytotoxicity rating (0-100), DIGSA ([10]; 250 g ai/ha): 100 | Pre-emerge Herbicidal Activity, phytotoxicity rating (0-100), CHEAL ([11]; 63 g ai/ha): 100 | Pre-emerge Herbicidal Activity, phytotoxicity rating (0-100), CHEAL ([11]; 250 g ai/ha): 100 | Post-emerge Herbicidal Activity AMARE ([12]; 63 g ai/ha): 100 | Post-emerge Herbicidal Activity AMARE ([12]; 250 g ai/ha): 100 | Post-emerge Herbicidal Activity CASOB ([13]; 63 g ai/ha): 80 | Post-emerge Herbicidal Activity CASOB ([13]; 250 g ai/ha): 100 | Post-emerge Herbicidal Activity SETVI ([14]; 63 g ai/ha): 0 | Post-emerge Herbicidal Activity SETVI ([14]; 250 g ai/ha): 90 | Post-emerge Herbicidal Activity ABUTH ([15]; 63 g ai/ha): 100 | Post-emerge Herbicidal Activity ABUTH ([15]; 250 g ai/ha): 100 | Post-emerge Herbicidal Activity ECHCG ([16]; 63 g ai/ha): 0 | Post-emerge Herbicidal Activity ECHCG ([16]; 250 g ai/ha): 90 | Post-emerge Herbicidal Activity IPOHE ([17]; 63 g ai/ha): 100 | Post-emerge Herbicidal Activity IPOHE ([17]; 250 g ai/ha): 100 | Post-emerge Herbicidal Activity SORHA ([18]; 63 g ai/ha): 50 | Post-emerge Herbicidal Activity SORHA ([18]; 250 g ai/ha): 95 | Post-emerge Herbicidal Activity DIGSA ([19]; 63 g ai/ha): 0 | Post-emerge Herbicidal Activity DIGSA ([19]; 250 g ai/ha): 70 | Post-emerge Herbicidal Activity CHEAL ([20]; 63 g ai/ha): 95 | Post-emerge Herbicidal Activity CHEAL ([20]; 250 g ai/ha): 100 | Post-emerge Herbicidal Activity RICE (crop damage) ([21]; 63 g ai/ha): 30 | Post-emerge Herbicidal Activity RICE (crop damage) ([21]; 250 g ai/ha): 80 | Post-emerge Herbicidal Activity CORN (crop damage) ([22]; 63 g ai/ha): 30 | Post-emerge Herbicidal Activity CORN (crop damage) ([22]; 250 g ai/ha): 95
